In patent US12428398B2, “2-(2,4,5-substituted phenylamino) pyrimidine derivative and crystalline form B thereof” (Henan Genuine Biotech Co., Ltd., priority 2019, dated 2025):

What was measured:
wild EGFR = wild EGFR (Homo sapiens, UniProt P00533); conditions: J. Med. Chem. 2014; cited from earlier work
[1] = Pharmacokinetics of Dositinib and AZD9291 in rats; conditions: for T1/2: parent drug; for AUC0-last / Cmax: parent drug in plasma; for Cmax: intragastric 12 mg/kg per FIGS. 2-5
Excerpt: Preparation of Test Solution
2) Preparation of Orally Administered Preparations • a) Weigh an appropriate amount of compound powders into a container; • b) Add an appropriate volume of 0.5% HPMC (hydroxypropyl methylcellulose, 4000 CP) aqueous solution to the container, and continuously stir or whirl until a uniform solution was obtained; • c) Add the remaining volume of 0.5% HPMC (hydroxypropyl methylcellulose, 4000 CP) aqueous solution to the container to a final volume, and continuously stir or whirl until the solution was uniform.
The preparation for intragastric administration was prepared the day before administration and analyzed. When the preparation was not in use, it was stored in a refrigerator at 2° C. to 8° C. and used within 8 days.
Animal: Rats (SD) from Beijing Vital River Laboratory Animal Technology Co., Ltd. 36 rats (18 males and 18 females), 6-10 weeks old, 200-300 g (males); 170-280 g (female). […] The animals in the sixth group were administered with AZD9291 (mesylate) solution by gavage, with a dose volume of 10 mL/kg. The blood samples were taken at the following time points after administration to measure the blood drug concentrations: 0.083, 0.25, 0.5, 1, 2, 4, 6, 8, 12 and 24 hours.
Administration: Whole blood samples were collected through jugular vein puncture (or other appropriate blood collection sites) at the specified time (about 0.15 mL in the fifth group and 0.23 mL in other groups), with wet ice operation throughout the whole process, and the actual blood collection time was recorded in the experimental records. The acceptable error of collection time point was ±1 minute within 1 hour of administration, and ±5% of theoretical time for other time points. The blood samples were immediately transferred to labeled commercial tubes containing K2-EDTA and then centrifuged (3,000 g, 4° C., 15 min) for plasma collection.
Retention time, chromatogram collection and chromatogram integration of compounds and internal standards were processed by Software Analyst (Applied Biosystems), and data statistics were processed by software Watson LIMS (Thermo Fisher Scientific) or Analyst (Applied Biosystems). The unit of the analyte concentration in the sample was nM, three significant figures were reserved, and all values expressed in percentage (such as % deviation and % coefficient of variation, etc.) were reserved to one decimal place.
Data analysis and reporting: WinNonlin™ Version 6.3 (Pharsight, Mountain View, CA) or above pharmacokinetic software for non-atrioventricular models was used to process the blood drug concentration, and the linear logarithm trapezoid method was used to calculate the pharmacokinetic parameters.

[2] = tested on: Human non-small cell lung cancer HCC827 cell subcutaneous xenograft; conditions: HCC-827 nude mouse model, PO QD
Description: Example 5 In Vivo Pharmacodynamics of Crystalline Form B of Dositinib and AZD9291 on Human Non-Small Cell Lung Cancer HCC827 Cell Subcutaneous Xenograft BALB/C Nude Mouse Model
Human non-small cell lung cancer HCC827 (ATCC-CRL-2868) was monolayer cultured in vitro. The culture conditions were: RPMI-1640 medium with 10% fetal bovine serum, 100 U/mL penicillin and 100 g/mL streptomycin, in a 5% CO2 incubator at 37° C. Trypsin EDTA was used for routine digestion twice a week. When the cell saturation was 80%-90% and the number reached the requirements, the cells were collected, counted and transplanted.
Animals: BALB/c nude mouse, female, 6-8 weeks old, weight 18-22 g. […]
Experimental index: to investigate whether the tumor growth is inhibited, delayed or cured. The tumor diameter was measured with a vernier caliper twice a week. […]
The antitumor effect of the compound was evaluated by tumor growth inhibition value (TGI) (%) or relative tumor proliferation rate T/C (%). […]
Relative tumor proliferation rate T/C (%): the calculation is as follows: T/C %=TRTV/CRTV×100% (TRTV: treatment group RTV; CRTV: negative control group RTV). The relative tumor volume (RTV) is calculated according to the results of tumor measurement. […]
At the end of the experiment, the tumor weight is measured and the percentage of Tweight/Cweight is calculated. […]

Chain of wild EGFR (P00533 25-1210): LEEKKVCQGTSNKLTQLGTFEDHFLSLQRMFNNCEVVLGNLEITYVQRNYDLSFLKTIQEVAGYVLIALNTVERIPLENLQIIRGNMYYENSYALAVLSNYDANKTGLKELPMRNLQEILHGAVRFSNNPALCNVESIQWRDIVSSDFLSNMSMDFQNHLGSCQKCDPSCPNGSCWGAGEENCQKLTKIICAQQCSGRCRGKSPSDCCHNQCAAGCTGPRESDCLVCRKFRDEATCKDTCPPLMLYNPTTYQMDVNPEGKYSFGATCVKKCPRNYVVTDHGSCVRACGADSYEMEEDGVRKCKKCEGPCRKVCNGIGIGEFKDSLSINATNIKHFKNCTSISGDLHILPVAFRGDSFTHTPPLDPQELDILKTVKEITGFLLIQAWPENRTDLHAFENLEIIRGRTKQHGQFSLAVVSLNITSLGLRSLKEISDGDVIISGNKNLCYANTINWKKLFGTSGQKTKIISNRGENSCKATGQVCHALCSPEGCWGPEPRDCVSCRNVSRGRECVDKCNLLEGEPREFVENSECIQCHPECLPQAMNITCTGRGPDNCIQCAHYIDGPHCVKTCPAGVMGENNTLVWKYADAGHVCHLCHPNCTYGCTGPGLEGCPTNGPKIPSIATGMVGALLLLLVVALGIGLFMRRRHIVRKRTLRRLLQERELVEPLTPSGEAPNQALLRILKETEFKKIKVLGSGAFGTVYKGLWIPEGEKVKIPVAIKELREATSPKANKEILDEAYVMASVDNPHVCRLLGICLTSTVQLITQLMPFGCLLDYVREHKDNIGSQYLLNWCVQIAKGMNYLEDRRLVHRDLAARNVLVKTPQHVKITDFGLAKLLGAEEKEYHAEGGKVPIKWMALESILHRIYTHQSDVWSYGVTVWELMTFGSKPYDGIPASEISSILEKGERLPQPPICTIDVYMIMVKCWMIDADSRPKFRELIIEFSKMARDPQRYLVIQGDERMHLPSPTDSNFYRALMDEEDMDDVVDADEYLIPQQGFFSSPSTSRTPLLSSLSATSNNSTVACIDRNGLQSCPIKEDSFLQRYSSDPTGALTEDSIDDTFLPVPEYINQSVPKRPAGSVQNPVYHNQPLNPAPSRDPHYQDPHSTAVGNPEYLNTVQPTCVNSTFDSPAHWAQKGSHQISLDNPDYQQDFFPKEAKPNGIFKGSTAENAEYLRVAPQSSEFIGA

Which “inhibitory activity on wild EGFR, times stronger than that of Osimertinib” value (wild EGFR) does the source give for `C=CC(=O)Nc1cc(Nc2nccc(-c3c[nH]c4ccccc34)n2)c(OC)cc1N(C)CCN(C)C` [AZ5104] here?
The value was 14.5 times.

Which T1/2 ([1]; female rats) does the source give for `C=CC(=O)Nc1cc(Nc2nccc(-c3cn(C)c4ccccc34)n2)c(OC)cc1N(C)CCN(C)C` [AZD9291 (crystalline form A + B), Osimertinib, reference compound] here?
Its T1/2 is 5.59 h.

And the AUC0-last ([1]; female rats)?
Its AUC0-last is 2592 ng·h/mL.

What about the Cmax ([1]; female rats) of the same compound?
Its Cmax is 207 ng/mL.

And the T1/2 ([1]; male rats)?
Its T1/2 is 3.40 h.

What about the AUC0-last ([1]; male rats) of the same compound?
Its AUC0-last is 907 ng·h/mL.

And the Cmax ([1]; male rats)?
Its Cmax is 106 ng/mL.

For `CS(=O)(=O)O.[2H]C([2H])=CC(=O)Nc1cc(Nc2nccc(-c3cn(C([2H])([2H])[2H])c4ccccc34)n2)c(OC)cc1N(C)CCN(C)C` [Dositinib (crystalline form A + B), N-(2-(((2-(Dimethylamino)ethyl)) (methyl)amino)-4-methoxy-5-((4-(d3-1-methyl-1H-indol-3-yl)pyrimidin-2-yl)amino)phenyl) d2-acrylamide-mesylate], which T1/2 ([1]; female rats) is on record?
The T1/2 was 6.77 h.

And the AUC0-last ([1]; female rats)?
The AUC0-last was 2650 ng·h/mL.

And the Cmax ([1]; female rats)?
Its Cmax is 205 ng/mL.

And the T1/2 ([1]; male rats)?
Its T1/2 is 3.70 h.

What about the AUC0-last ([1]; male rats) of the same compound?
The AUC0-last was 915 ng·h/mL.

And the Cmax ([1]; male rats)?
Its Cmax is 110 ng/mL.

Which results are given for `CS(=O)(=O)O.[2H]C([2H])=CC(=O)Nc1cc(Nc2nccc(-c3cn(C([2H])([2H])[2H])c4ccccc34)n2)c(OC)cc1N(C)CCN(C)C` [Dositinib (crystalline form B), N-(2-(((2-(Dimethylamino)ethyl)) (methyl)amino)-4-methoxy-5-((4-(d3-1-methyl-1H-indol-3-yl)pyrimidin-2-yl)amino)phenyl) d2-acrylamide-mesylate]?
anticancer activity relative to AZD9291 (Osimertinib, mixture of crystalline forms A and B) [2]: twice; anticancer activity of 0.5 mg/kg compared with 1 mg/kg of AZD9291 ([2]; 0.5 mg/kg): equivalent; T1/2 ([1]; female rats): 6.85 h; AUC0-last ([1]; female rats): 3105 ng·h/mL; Cmax ([1]; female rats): 208 ng/mL; T1/2 ([1]; male rats): 3.87 h; AUC0-last ([1]; male rats): 1100 ng·h/mL; Cmax ([1]; male rats): 115 ng/mL
